For the test, the target named is T1, PARP7 (Homo sapiens, UniProt Q7Z3E1).
T1 sequence (Q7Z3E1 1-657): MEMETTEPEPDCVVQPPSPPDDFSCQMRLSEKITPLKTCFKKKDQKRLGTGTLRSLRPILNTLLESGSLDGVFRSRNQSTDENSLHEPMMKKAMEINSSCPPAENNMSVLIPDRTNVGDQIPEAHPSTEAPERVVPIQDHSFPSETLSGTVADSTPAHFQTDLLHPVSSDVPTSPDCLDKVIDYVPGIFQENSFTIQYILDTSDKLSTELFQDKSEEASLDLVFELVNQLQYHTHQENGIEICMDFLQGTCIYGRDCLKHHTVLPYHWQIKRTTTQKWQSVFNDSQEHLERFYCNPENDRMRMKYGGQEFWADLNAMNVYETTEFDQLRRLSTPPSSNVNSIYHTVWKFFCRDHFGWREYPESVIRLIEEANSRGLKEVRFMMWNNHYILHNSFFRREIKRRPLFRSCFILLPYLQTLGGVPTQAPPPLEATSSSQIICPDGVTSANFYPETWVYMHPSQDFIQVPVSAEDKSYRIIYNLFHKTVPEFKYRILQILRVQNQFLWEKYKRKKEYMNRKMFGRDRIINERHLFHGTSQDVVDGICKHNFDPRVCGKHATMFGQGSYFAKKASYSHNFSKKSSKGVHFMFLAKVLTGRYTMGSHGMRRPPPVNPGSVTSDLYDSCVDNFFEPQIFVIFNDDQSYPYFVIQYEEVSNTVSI
Description: PARP7 TR-FRET assay (binding, displacement of biotinylated Probe A). The note with it: 6 nM PARP7, 2 nM Probe A, 25° C., 30 min. The method, then:
Biological Assay Example A: PARP7 TR-FRET Assay
A time-resolved fluorescence energy transfer (TR-FRET) assay was used to test binding activity of compounds to PARP7. Two microliter test compound was added in 384-well plate. Reactions were performed in a 6 uL volume by adding 4 uL mixture of PARP7 and Probe A (a biotinylated probe binding to the PARP7: N-(6-(2-(4-((2-(6-oxo-5-(trifluoromethyl)-1,6-dihydropyridazin-4-yl) isoindolin-5-yl) oxy) piperidin-1-yl) acetamido) hexyl)-5-((3aS,4S,6aR)-2-oxohexahydro-1H-thieno [3,4-d]imidazol-4-yl) pentanamide, made as reported in WO2019212937A1) in assay buffer (20 mM HEPES pH 8.0, 100 mM NaCl, 0.1% BSA, 2 mM DTT and 0.002% Tween20). The final concentration of PARP7 and Probe A were 6 nM and 2 nM, incubating with test compounds at 25° C. for 30 min. Four microliter ULight-anti 6xHis and LANCE Eu-W1024 labeled streptavidin (PerkinElmer) were added with the final concentration of ULight-anti 6xHis and LANCE Eu-W1024 at 4 nM and 0.25 nM. The reaction mixture was incubated at 25° C. for 30 min. The plate was read on a Tecan Spark plate reader (excitation wavelength at 320 nm, emission wavelength at 615 nm and 665 nm with a 90 us delay. The ratio of the 665/615 nm emission was calculated for each well to the amount of complex of PARP7 and Probe A in each well was calculated. The 0.25% DMSO vehicle was used as control and no PARP7 well was as blank well. Inhibition rate is calculated with the formula of % inhibition=100-100*(TRFcmpd-TRFblank)/(TRFcontrol−TRFblank). Inhibition IC50 is calculated with the equation of Y=Bottom+ (Top-Bottom)/(1+10^((LogIC50−X) *Hill Slope))
(In general: Time-resolved FRET reads energy transfer from a long-lived donor to a nearby acceptor.)
As for `N#Cc1ccc2c(c1)N(c1cc(C(F)(F)F)c(=O)[nH]n1)CC(CC(=O)N1CCN(c3ncc(C(F)F)cn3)CC1)O2` (single isomer, unassigned) [Compound 219], the IC50 (commonly the concentration needed to halve the response being measured) is below 100 nM.
With `O=C(c1cncc(Oc2n[nH]c(=O)c(C(F)(F)F)c2N2CC3(C2)CC(F)(F)C3)c1)N1CCN(c2ncc(C(F)(F)F)cn2)CC1` [Compound 238], the IC50 is below 100 nM.
With `C[C@@H]1CN(C(=O)c2cncc(Oc3n[nH]c(=O)c(C(F)(F)F)c3N3CC4(C3)CC(F)(F)C4)c2)CCN1c1ncc(C(F)(F)F)cn1` [Compound 314] the figure was below 100 nM; with `Cc1c(Oc2cccc(C(=O)N3CC[C@H](Oc4ncc(C(F)(F)F)cn4)C3)c2)n[nH]c(=O)c1C(F)(F)F` [Compound 28], above 1000 nM.
With `O=C(COC1CCOc2c1n[nH]c(=O)c2Br)N1CCN(c2ncc(C(F)(F)F)cn2)CC1` (single isomer, unassigned) [Compound 9] the figure was above 1000 nM; with `N#Cc1cnc(N2CCN(C(=O)c3cccc(Oc4n[nH]c(=O)c(C(F)(F)F)c4N4CC(C5CC5)C4)c3)CC2)nc1` [Compound 303], below 100 nM.
To `C[C@@H]1CN(c2cc(C(F)(F)F)c(=O)[nH]n2)C[C@@H](CC(=O)N2CCN(c3ncc(C(F)(F)F)cn3)CC2)O1` (stereo in doubt) [Compound 112] belongs below 100 nM; to `O=C(CC1CN(c2cc(C(F)(F)F)c(=O)[nH]n2)c2cc(N3CCOCC3=O)ccc2O1)N1CCN(c2ncc(C(F)(F)F)cn2)CC1` (single isomer, unassigned) [Compound 281], below 100 nM.
In turn, `C[C@@H]1CN(C(=O)CC2CN(c3cc(C(F)(F)F)c(=O)[nH]n3)c3cc(F)ccc3O2)CCN1c1ncc(C#N)cn1` (single isomer, unassigned) [Compound 326] came in with an IC50 of 100 to 1000 nM.
On to `COCCNC(=O)c1ccc2c(c1)N(c1cc(C(F)(F)F)c(=O)[nH]n1)CC(CC(=O)N1CCN(c3ncc(C(F)(F)F)cn3)CC1)O2` (single isomer, unassigned) [Compound 310], for which the IC50 is below 100 nM.
For the molecule `COC1CN(c2c(Oc3cncc(C(=O)N4CCN(c5ncc(C(F)(F)F)cn5)CC4)c3)n[nH]c(=O)c2C(F)(F)F)C1` [Compound 239], the IC50 is below 100 nM.
As to `O=C(c1cccc(Oc2n[nH]c(=O)c(C(F)(F)F)c2N2CC3(CCC3)C2)c1)N1CCN(c2ccc(C(F)(F)F)cn2)CC1` [Compound 187], the IC50 was below 100 nM.
With `O=C(CC1CN(c2cc(C(F)(F)F)c(=O)[nH]n2)c2ccccc2O1)N1CCn2c(nnc2C(F)(F)F)C1` (single isomer, unassigned) [Compound 289] the figure was above 1000 nM.
With `O=C(CC[C@@H]1COCCN1c1cc(C(F)(F)F)c(=O)[nH]n1)N1CCN(c2ncc(C(F)(F)F)cn2)CC1` [Compound 58] the figure was below 100 nM.
In turn, `N#Cc1cnc(N2CCN(C(=O)CC3CN(c4cc(C(F)(F)F)c(=O)[nH]n4)c4cc(C#N)ccc4O3)CC2)nc1` (single isomer, unassigned) [Compound 218] came in with an IC50 below 100 nM.
With `CC(C)(O)c1cnc(N2CCN(C(=O)CC3CN(c4cc(C(F)(F)F)c(=O)[nH]n4)c4cc(F)ccc4O3)CC2)nc1` (single isomer, unassigned) [Compound 348] the figure was below 100 nM.
Molecule `O=C(CC1CN(c2n[nH]c(=O)c3ccc(F)cc23)CCO1)N1CCN(c2ncc(C(F)(F)F)cn2)CC1` (single isomer, unassigned) [Compound 51] gave an IC50 of 100 to 1000 nM.
To `O=C(COC1CCOc2c1n[nH]c(=O)c2C1CC1)N1CCN(c2ncc(C(F)(F)F)cn2)CC1` (single isomer, unassigned) [Compound 129] belongs above 1000 nM.
As to `N#Cc1ccc(N2CCN(C(=O)CC3CN(c4cc(C(F)(F)F)c(=O)[nH]n4)c4cc(C(F)F)ccc4O3)CC2)nc1` (single isomer, unassigned) [Compound 327], the IC50 is below 100 nM.
With `O=C(CC1CN(c2n[nH]c(=O)c3ncccc23)CCO1)N1CCN(c2ncc(C(F)(F)F)cn2)CC1` (single isomer, unassigned) [Compound 125] the figure was below 100 nM; with `Cc1cccc2c(N3CCOC(CC(=O)N4CCN(c5ncc(C(F)(F)F)cn5)CC4)C3)n[nH]c(=O)c12` (single isomer, unassigned) [Compound 106], 100 to 1000 nM.
`O=C(CC1CN(c2n[nH]c(=O)c3cc(Cl)ccc23)CCO1)N1CCN(c2ncc(C(F)(F)F)cn2)CC1` (single isomer, unassigned) [Compound 121] displayed an IC50 of 100 to 1000 nM.
To `N#Cc1cnc(N2CCN(C(=O)CC3CN(c4cc(C(F)(F)F)c(=O)[nH]n4)c4ccccc4O3)CC2)nc1` (single isomer, unassigned) [Compound 251] belongs 100 to 1000 nM.
`O=C(c1cccc(Oc2n[nH]c(=O)c(C(F)(F)F)c2C#CC2CC2)c1)N1CCN(c2ncc(C(F)(F)F)cn2)CC1` [Compound 139] yielded an IC50 of 100 to 1000 nM.
With `N#Cc1cnc(N2CCN(C(=O)c3cc(Oc4n[nH]c(=O)c(C(F)(F)F)c4N4CC5(CCC5)C4)ccn3)CC2)nc1` [Compound 273] the figure was below 100 nM.
As for `O=C(COC1CCOc2c1n[nH]c(=O)c2C(F)(F)F)N1CCN(c2ncc(C(F)(F)F)cn2)CC1` (single isomer, unassigned) [Compound 10], the half-inhibitory concentration (IC50) was below 100 nM.
With `O=C(c1cncc(Oc2n[nH]c(=O)c(C(F)(F)F)c2N2CC3(C2)CC(F)(F)C3)c1)N1CCN(c2ncc(Cl)cn2)CC1` [Compound 277] the figure was below 100 nM; with `O=C(C[C@@H]1CN(c2n[nH]c(=O)c3ccc(N4CC(F)C4)cc23)CCO1)N1CCN(c2ncc(C(F)(F)F)cn2)CC1` [Compound 207], below 100 nM.
Regarding `O=C(c1cccc(Oc2n[nH]c(=O)c(C(F)(F)F)c2N2CC(C3CC3)C2)c1)N1CCN(c2ncc(C(F)(F)F)cn2)CC1` [Compound 180], the IC50 was below 100 nM.
With `N#Cc1ccc2c(N3CCOC(CC(=O)N4CCN(c5ncc(C(F)(F)F)cn5)CC4)C3)n[nH]c(=O)c2c1` (stereo not shown) [Compound 243] the figure was 100 to 1000 nM; with `CO[C@H]1C[C@H](Nc2c(Oc3cccc(C(=O)N4CCN(c5ncc(C(F)(F)F)cn5)CC4)c3)n[nH]c(=O)c2C(F)(F)F)C1` [Compound 190], below 100 nM.
With `O=C(c1cccc(Oc2n[nH]c(=O)c(C(F)(F)F)c2N2CC(C(F)F)C2)c1)N1CCN(c2ncc(C(F)(F)F)cn2)CC1` [Compound 72] the figure was below 100 nM; with `C[C@H]1CN(c2n[nH]c(=O)c3c(F)cccc23)C[C@H](CC(=O)N2CCN(c3ncc(C(F)(F)F)cn3)CC2)O1` (stereo in doubt) [Compound 91], 100 to 1000 nM; with `Cc1c(N(C)c2cccc(C(=O)N3CCN(c4ncc(C(F)(F)F)cn4)CC3)c2)n[nH]c(=O)c1C(F)(F)F` [Compound 77], below 100 nM.
Molecule `N#Cc1cnc(N2CCN(C(=O)c3cc(Oc4n[nH]c(=O)c(C(F)(F)F)c4N4CC5(C4)CC(F)(F)C5)ccn3)CC2)nc1` [Compound 305] came in with an IC50 below 100 nM.
To `COCC(=O)Nc1ccc2c(c1)N(c1cc(C(F)(F)F)c(=O)[nH]n1)CC(CC(=O)N1CCN(c3ncc(C(F)(F)F)cn3)CC1)O2` (single isomer, unassigned) [Compound 283] belongs below 100 nM.
To `O=C(CC1CN(c2n[nH]c(=O)c3ccc(Cl)cc23)CCO1)N1CCN(c2ncc(C(F)(F)F)cn2)CC1` (single isomer, unassigned) [Compound 122] belongs 100 to 1000 nM.
With `CC(=O)N1CCN(C(=O)c2cccc(Oc3n[nH]c(=O)c(C(F)(F)F)c3N3CC4(CCC4)C3)c2)CC1` [Compound 160] the figure was below 100 nM.
In the case of `O=C(c1cncc(Oc2n[nH]c(=O)c(C(F)(F)F)c2N2CC(C3CC3)C2)c1)N1CCN(c2ncc(C(F)F)cn2)CC1` [Compound 279], the IC50 is below 100 nM.
`O=C(CC1CN(c2cc(C(F)(F)F)c(=O)[nH]n2)c2ccc(Cl)cc2O1)N1CCN(c2ncc(C(F)(F)F)cn2)CC1` (single isomer, unassigned) [Compound 164] returned a half-inhibitory concentration (IC50) of 100 to 1000 nM.
